Data taken from publication PMC10590383, “Repurposing conformational changes in ANL superfamily enzymes to rapidly generate biosensors for organic and amino acids” (Nature Communications, 2023).

Experiment: Dose–response curve of purified […]s with phenylalanine
Format: biochemical
Protocol: Fig. 3 Dose–response curves and fluorescence spectrums of […]s. a, c, e, g, i, k Dose–response curve of purified […]s with increasing concentrations of ligand in 100 mM Tris-HCl buffer (pH=7.5). The normalized ΔF/F0 value increased after ligand binding. All data shown are mean ± S.D. (n = 3 biologically independent samples). b, d, f, h, j, l The fluorescence spectra of […]s changed as the ligand concentration increased. All data shown are mean ± S.D. (n = 3 biologically independent samples). Source data are provided as a Source data file.
Fig. 4 Engineering ligand specificity of GrsA-PheA for generating […]s. a The selectivity-conferring code of Phe and Leu A domains. b–f Dose–response curve of purified […]s with increasing concentrations of ligands in 100 mM Tris-HCl buffer (pH=7.5). All data shown are means ± S.D. (n = 3 biologically independent samples). g A series of […] reactions was tested to show the […]’s specificity with 20 proteinogenic amino acids. The values on the heatmap represent the ΔF/F0 value normalized to each […]’s maximal ΔF/F0 value ((ΔF/F0)/maximal ΔF/F0). The concentrations of 20 amino acids were 100 μM. The color indicates the average value of three independent biological replicates after 15 min. All data shown are means ± S.D. (n = 3 biologically independent samples). Source data are provided as a Source data file.
The study conducted dose–response curve, substrate specificity, and fluorescent spectrum analyses in 100-mM Tris buffer (pH = 7.5), while pH stability experiments were performed in 100-mM Tris buffer at three different pH values (6.5, 7.5, and 8.5) at room temperature. […] protein at a concentration of 0.75 μM, various small molecule concentrations, 1 mM ATP, and 2.5 mM MgCl2 were used in the experiments. Fluorescent signals were detected using a Microplate Reader (Synergy H4, Bio Tek) at an excitation/emission wavelength of 460 nm/510 nm or 480 nm/510 nm. The dose-response curve was determined immediately after the addition of the analyte. The total duration of the measurement was 15 min, with readings taken at one-minute intervals. The dose-response curve was plotted using the fluorescence values obtained after achieving stability in the fluorescence signal. The dose-response curves were fitted using the logistic model LOGISTIC5 available in Origin 2021, which could provide a more adequate fit to asymmetric dose-response data[62],[63]. Excitation spectra were scanned from 300 to 540 nm with a step size of 5 nm, and the emission wavelength was set to 560 nm. Emission spectra were scanned from 470 to 700 nm with a step size of 5 nm, and the excitation wavelength was set to 450 nm. The thermal stability of […] was analyzed using the UNcle multifunctional protein stability analysis system. Measurements were performed in 20 mM MOPS buffer with 2 mM DTT at a sample concentration of 1 mg/mL. Absolute fluorescence quantum yields were measured using an absolute photoluminescence quantum yield spectrometer (FS5, Edinburgh).

For `N[C@@H](Cc1ccccc1)C(=O)O` [Phe], the “AVE, dose-response Fig. 4 b” value (substrate Phe 0.001 μM) was 0, the “AVE, dose-response Fig. 4 b” value (substrate Phe 0.005 μM) was 0.04668 and the “AVE, dose-response Fig. 4 b” value (substrate Phe 0.01 μM) was 0.05356. For the same molecule, the “AVE, dose-response Fig. 4 b” value (substrate Phe 0.05 μM) was 0.1413, the “AVE, dose-response Fig. 4 b” value (substrate Phe 0.1 μM) was 0.2634 and the “AVE, dose-response Fig. 4 b” value (substrate Phe 0.5 μM) was 0.9215. The “AVE, dose-response Fig. 4 b” value (substrate Phe 1 μM) was 1.384, the “AVE, dose-response Fig. 4 b” value (substrate Phe 5 μM) was 2.412 and the “AVE, dose-response Fig. 4 b” value (substrate Phe 10 μM) was 2.788. For the same molecule, the “AVE, dose-response Fig. 4 b” value (substrate Phe 25 μM) was 3.108, the “AVE, dose-response Fig. 4 b” value (substrate Phe 50 μM) was 3.25 and the “AVE, dose-response Fig. 4 b” value (substrate Phe 100 μM) was 3.385. For the same molecule, the “AVE, dose-response Fig. 4 c” value (substrate Phe 0.5 μM) was 0, the “AVE, dose-response Fig. 4 c” value (substrate Phe 1 μM) was 0.02176 and the “AVE, dose-response Fig. 4 c” value (substrate Phe 2 μM) was 0.04684. For the same molecule, the “AVE, dose-response Fig. 4 c” value (substrate Phe 5 μM) was 0.0476, the “AVE, dose-response Fig. 4 c” value (substrate Phe 10 μM) was 0.102 and the “AVE, dose-response Fig. 4 c” value (substrate Phe 20 μM) was 0.1609. For the same molecule, the “AVE, dose-response Fig. 4 c” value (substrate Phe 50 μM) was 0.1914, the “AVE, dose-response Fig. 4 c” value (substrate Phe 100 μM) was 0.2096 and the “AVE, dose-response Fig. 4 c” value (substrate Phe 200 μM) was 0.2332. The “AVE, dose-response Fig. 4 c” value (substrate Phe 500 μM) was 0.2962, the “AVE, dose-response Fig. 4 c” value (substrate Phe 750 μM) was 0.3509 and the “AVE, dose-response Fig. 4 c” value (substrate Phe 1000 μM) was 0.2649. The “AVE, dose-response Fig. 4 e” value (substrate Phe 0.1 μM) was -6.4763e-17, the “AVE, dose-response Fig. 4 e” value (substrate Phe 0.2 μM) was 0.02607 and the “AVE, dose-response Fig. 4 e” value (substrate Phe 1 μM) was 0.02065. The “AVE, dose-response Fig. 4 e” value (substrate Phe 2 μM) was 0.01654, the “AVE, dose-response Fig. 4 e” value (substrate Phe 10 μM) was 0.06065 and the “AVE, dose-response Fig. 4 e” value (substrate Phe 20 μM) was 0.08275. The “AVE, dose-response Fig. 4 e” value (substrate Phe 100 μM) was 0.1347, the “AVE, dose-response Fig. 4 e” value (substrate Phe 200 μM) was 0.2309 and the “AVE, dose-response Fig. 4 e” value (substrate Phe 500 μM) was 0.3796. For the same molecule, the “AVE, dose-response Fig. 4 e” value (substrate Phe 1000 μM) was 0.4613, the “AVE, dose-response Fig. 4 e” value (substrate Phe 1500 μM) was 0.4963 and the “AVE, dose-response Fig. 4 e” value (substrate Phe 2000 μM) was 0.5161. For the same molecule, the “AVE, dose-response Fig. 4 f” value (substrate Phe 0.0001 μM) was -0.000122, the “AVE, dose-response Fig. 4 f” value (substrate Phe 0.001 μM) was 0.002395 and the “AVE, dose-response Fig. 4 f” value (substrate Phe 0.01 μM) was 0.009697. The “AVE, dose-response Fig. 4 f” value (substrate Phe 0.1 μM) was 0.01529, the “AVE, dose-response Fig. 4 f” value (substrate Phe 1 μM) was -0.009047 and the “AVE, dose-response Fig. 4 f” value (substrate Phe 10 μM) was 0.009571. For the same molecule, the “AVE, dose-response Fig. 4 f” value (substrate Phe 50 μM) was 0.1062, the “AVE, dose-response Fig. 4 f” value (substrate Phe 100 μM) was 0.2173 and the “AVE, dose-response Fig. 4 f” value (substrate Phe 500 μM) was 0.5047. For the same molecule, the “AVE, dose-response Fig. 4 f” value (substrate Phe 1000 μM) was 0.643, the “AVE, dose-response Fig. 4 f” value (substrate Phe 5000 μM) was 0.6763 and the “AVE, dose-response Fig. 4 f” value (substrate Phe 10000 μM) was 0.7368. The “AVE, dose-response Fig. 4 d” value (substrate Phe 0.01 μM) was 0.02814, the “AVE, dose-response Fig. 4 d” value (substrate Phe 0.1 μM) was 0.03519 and the “AVE, dose-response Fig. 4 d” value (substrate Phe 1 μM) was 0.04924. For the same molecule, the “AVE, dose-response Fig. 4 d” value (substrate Phe 5 μM) was 0.06403, the “AVE, dose-response Fig. 4 d” value (substrate Phe 10 μM) was 0.08037 and the “AVE, dose-response Fig. 4 d” value (substrate Phe 50 μM) was 0.1108. The “AVE, dose-response Fig. 4 d” value (substrate Phe 100 μM) was 0.1713, the “AVE, dose-response Fig. 4 d” value (substrate Phe 200 μM) was 0.2373 and the “AVE, dose-response Fig. 4 d” value (substrate Phe 500 μM) was 0.3495. For the same molecule, the “AVE, dose-response Fig. 4 d” value (substrate Phe 750 μM) was 0.3806, the “AVE, dose-response Fig. 4 d” value (substrate Phe 1000 μM) was 0.3842 and the “fluorescence response of GECFINDER, AVE of 3 repeats” value (“fluorescence response of GECFINDER” for short) (Supplementary Fig. 3 a, Phe 0.001 μM) was 0. For the same molecule, the “fluorescence response of GECFINDER” value (Supplementary Fig. 3 a, Phe 0.005 μM) was 0.03394, the “fluorescence response of GECFINDER” value (Supplementary Fig. 3 a, Phe 0.01 μM) was 0.09128 and the “fluorescence response of GECFINDER” value (Supplementary Fig. 3 a, Phe 0.1 μM) was 0.1211. For the same molecule, the “fluorescence response of GECFINDER” value (Supplementary Fig. 3 a, Phe 1 μM) was 0.1406, the “fluorescence response of GECFINDER” value (Supplementary Fig. 3 a, Phe 10 μM) was 0.1472 and the “fluorescence response of GECFINDER” value (Supplementary Fig. 3 a, Phe 50 μM) was 0.1578. For the same molecule, the “fluorescence response of GECFINDER” value (Supplementary Fig. 3 a, Phe 100 μM) was 0.198, the “fluorescence response of GECFINDER” value (Supplementary Fig. 3 a, Phe 500 μM) was 0.3919 and the “fluorescence response of GECFINDER” value (Supplementary Fig. 3 a, Phe 1000 μM) was 0.5221. The “fluorescence response of GECFINDER” value (Supplementary Fig. 3 a, Phe 5000 μM) was 0.7757, the “fluorescence response of GECFINDER” value (Supplementary Fig. 3 a, Phe 10000 μM) was 0.7576 and the “fluorescence response of GECFINDER” value (Supplementary Fig. 3 b, Phe 0.001 μM) was -4.337e-17. For the same molecule, the “fluorescence response of GECFINDER” value (Supplementary Fig. 3 b, Phe 0.005 μM) was 0.01069, the “fluorescence response of GECFINDER” value (Supplementary Fig. 3 b, Phe 0.01 μM) was -0.003867 and the “fluorescence response of GECFINDER” value (Supplementary Fig. 3 b, Phe 0.1 μM) was 0.001408. For the same molecule, the “fluorescence response of GECFINDER” value (Supplementary Fig. 3 b, Phe 1 μM) was 0.04065, the “fluorescence response of GECFINDER” value (Supplementary Fig. 3 b, Phe 10 μM) was 0.112 and the “fluorescence response of GECFINDER” value (Supplementary Fig. 3 b, Phe 50 μM) was 0.2916. For the same molecule, the “fluorescence response of GECFINDER” value (Supplementary Fig. 3 b, Phe 100 μM) was 0.4046, the “fluorescence response of GECFINDER” value (Supplementary Fig. 3 b, Phe 500 μM) was 0.8587 and the “fluorescence response of GECFINDER” value (Supplementary Fig. 3 b, Phe 1000 μM) was 1.065. The “fluorescence response of GECFINDER” value (Supplementary Fig. 3 b, Phe 5000 μM) was 1.452 and the “fluorescence response of GECFINDER” value (Supplementary Fig. 3 b, Phe 10000 μM) was 1.455.
